The target in this assay is glucagon receptor (Homo sapiens, UniProt P47871). Description: Functional assay, cAMP synthesis: luciferase reporter in HEK293 cells co-transfected with glucagon receptor. (A reporter such as luciferase makes a cellular process visible.)
Where [1] appears, read: EC50 at Glucagon Receptor, Table 31.

Structures are written as SMILES. Square brackets hold non-standard residues; d marks the D form. Side chains are listed from the residue outwards. Peptide text beside a SMILES is read from it. * marks the point of attachment. Palmitoyl = CCCCCCCCCCCCCCCC(=O)*; Aib = CC(C)(N)C(=O)O

Sequence of glucagon receptor (P47871 26-477): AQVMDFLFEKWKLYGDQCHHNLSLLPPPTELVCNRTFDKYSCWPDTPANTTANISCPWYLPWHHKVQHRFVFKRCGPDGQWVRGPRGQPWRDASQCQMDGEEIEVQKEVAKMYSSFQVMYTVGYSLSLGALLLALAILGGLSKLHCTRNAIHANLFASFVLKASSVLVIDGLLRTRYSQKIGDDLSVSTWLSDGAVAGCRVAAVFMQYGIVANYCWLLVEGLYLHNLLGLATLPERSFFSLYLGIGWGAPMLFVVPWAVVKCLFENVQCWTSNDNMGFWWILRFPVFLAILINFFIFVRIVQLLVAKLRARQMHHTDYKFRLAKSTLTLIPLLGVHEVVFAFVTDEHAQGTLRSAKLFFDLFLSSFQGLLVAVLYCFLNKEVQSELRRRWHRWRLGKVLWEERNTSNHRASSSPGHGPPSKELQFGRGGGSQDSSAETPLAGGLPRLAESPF
Procedure: Peptide absorbance readings were obtained from UV Absorbance measurements at 280 nm on a Genesys 6 Spectrophotometer (Thermo Electron Corporation). Beer's Law was used to calculate solution concentrations based on the number of tryptophan and tyrosine residues in each analog. At the end of the incubation, 100 μL LucLite luminescence substrate reagent was added to each well, the plate sealed and shaken, and placed into a Wallac Trilux luminescence counter for cAMP detection.
HEK293 cells were co-transfected with the GcgR or GLP-1R cDNAs and a luciferase reporter gene-linked to a cAMP response element (CRE). […] The plate was incubated for 10 min in the dark and light output was quantified on a MicroBeta1450 liquid scintillation counter (Perkin-Elmer, Wellesley, Mass.).

Turning to `CCCCCCCCCCCCCCCC(=O)NCCCC[C@H](NC(=O)[C@H](CC(=O)O)NC(=O)[C@H](CO)NC(=O)[C@@H](NC(=O)[C@H](Cc1ccccc1)NC(=O)[C@@H](NC(=O)CNC(=O)[C@H](CCC(N)=O)NC(=O)[C@H](CO)NC(=O)[C@@H](N)Cc1c[nH]cn1)[C@@H](C)O)[C@@H](C)O)C(=O)N[C@@H](CO)C(=O)N[C@@H](CCCCN)C(=O)N[C@@H](Cc1ccc(O)cc1)C(=O)N[C@@H](CC(C)C)C(=O)N[C@@H](CC(=O)O)C(=O)N[C@@H](CCC(=O)O)C(=O)N[C@@H](CCCNC(=N)N)C(=O)N[C@@H](CCCNC(=N)N)C(=O)N[C@@H](C)C(=O)N[C@@H](CCCCN)C(=O)N[C@@H](CC(=O)O)C(=O)N[C@@H](Cc1ccccc1)C(=O)N[C@H](C(=O)N[C@@H](CCC(N)=O)C(=O)N[C@@H](Cc1c[nH]c2ccccc12)C(=O)N[C@@H](CC(C)C)C(=O)N[C@@H](CCSC)C(=O)N[C@@H](CC(N)=O)C(=O)N[C@H](C(N)=O)[C@@H](C)O)C(C)C` [E16 K20-glucagon-NH2 with K^10—C16], the half-maximal effective concentration (EC50) (as a rule, the concentration that produces a half-maximal response) (EC50, Glucagon Receptor, Table 13) came out at 0.4 nM and the response (EC50 at Glucagon Receptor, Table 17) was half-maximal at 0.236 nM (EC50).

Regarding `CCCCCCCCCCCCCC(=O)NCCCC[C@H](NC(=O)[C@H](CC(=O)O)NC(=O)[C@H](CO)NC(=O)[C@@H](NC(=O)[C@H](Cc1ccccc1)NC(=O)[C@@H](NC(=O)CNC(=O)[C@H](CCC(N)=O)NC(=O)C(C)(C)NC(=O)[C@@H](N)Cc1c[nH]cn1)[C@@H](C)O)[C@@H](C)O)C(=O)N[C@@H](CO)C(=O)N[C@@H](CCCCN)C(=O)N[C@@H](Cc1ccc(O)cc1)C(=O)N[C@@H](CC(C)C)C(=O)N[C@@H](CC(=O)O)C(=O)NC(C)(C)C(=O)N[C@@H](CCCNC(=N)N)C(=O)N[C@@H](CCCNC(=N)N)C(=O)N[C@@H](C)C(=O)N[C@@H](CCC(N)=O)C(=O)N[C@@H](CC(=O)O)C(=O)N[C@@H](Cc1ccccc1)C(=O)N[C@H](C(=O)N[C@@H](CCC(N)=O)C(=O)N[C@@H](Cc1c[nH]c2ccccc12)C(=O)N[C@@H](CC(C)C)C(=O)N[C@@H](CCSC)C(=O)N[C@@H](CC(N)=O)C(=O)N[C@H](C(N)=O)[C@@H](C)O)C(C)C` [AIB2, AIB16, K10(C14) Gluc Amide], the response (EC50 at the Glucagon receptor, Table 21) was half-maximal at 0.044 nM (EC50).

On to `CCCCCCCCCCCCCCCC(=O)N[C@@H](Cc1c[nH]c2ccccc12)C(=O)NCCCC[C@H](NC(=O)[C@H](CC(=O)O)NC(=O)[C@H](CO)NC(=O)[C@@H](NC(=O)[C@H](Cc1ccccc1)NC(=O)[C@@H](NC(=O)CNC(=O)[C@H](CCC(N)=O)NC(=O)C(C)(C)NC(=O)[C@@H](N)Cc1c[nH]cn1)[C@@H](C)O)[C@@H](C)O)C(=O)N[C@@H](CO)C(=O)N[C@@H](CCCCN)C(=O)N[C@@H](Cc1ccc(O)cc1)C(=O)N[C@@H](CC(C)C)C(=O)N[C@@H](CC(=O)O)C(=O)NC(C)(C)C(=O)N[C@@H](CCCNC(=N)N)C(=O)N[C@@H](CCCNC(=N)N)C(=O)N[C@@H](C)C(=O)NC(C)(C)C(=O)N[C@@H](CC(=O)O)C(=O)N[C@@H](Cc1ccccc1)C(=O)N[C@H](C(=O)N[C@@H](CS)C(=O)N[C@@H](Cc1c[nH]c2ccccc12)C(=O)N[C@@H](CC(C)C)C(=O)N[C@@H](CCSC)C(=O)N[C@@H](CC(N)=O)C(=O)N[C@H](C(N)=O)[C@@H](C)O)C(C)C` (H-H[Aib]QGTFTSDK([Trp-Palmitoyl])SKYLD[Aib]RRA[Aib]DFVCWLMNT-NH2; N-terminus assumed), for which, where the note is “Glucagon Receptor EC50, Table 20”, the midpoint of the response, the EC50, lay at 2.06 nM.

As for `CCCCCCCCCCCCCCCC(=O)NCCCC[C@H](NC(=O)[C@H](CC(=O)O)NC(=O)[C@H](CO)NC(=O)[C@@H](NC(=O)[C@H](Cc1ccccc1)NC(=O)[C@@H](NC(=O)CNC(=O)[C@H](CCC(=O)O)NC(=O)C(C)(C)NC(=O)[C@@H](N)Cc1c[nH]cn1)[C@@H](C)O)[C@@H](C)O)C(=O)N[C@@H](CO)C(=O)N[C@@H](CCCCN)C(=O)N[C@@H](Cc1ccc(O)cc1)C(=O)N[C@@H](CC(C)C)C(=O)N[C@@H](CC(=O)O)C(=O)N[C@@H](CCC(=O)O)C(=O)N[C@@H](CCC(N)=O)C(=O)N[C@@H](C)C(=O)N[C@@H](C)C(=O)N[C@@H](CCCCN)C(=O)N[C@@H](CCC(=O)O)C(=O)N[C@@H](Cc1ccccc1)C(=O)N[C@H](C(=O)N[C@@H](C)C(=O)N[C@@H](Cc1c[nH]c2ccccc12)C(=O)N[C@@H](CC(C)C)C(=O)N[C@@H](CCSC)C(=O)N[C@@H](CC(N)=O)C(=O)N[C@H](C(N)=O)[C@@H](C)O)[C@@H](C)CC` [compound 647] (H-H[Aib]EGTFTSDK(Palmitoyl)SKYLDEQAAKEFIAWLMNT-NH2; N-terminus assumed), under setting [1], the concentration for a half-maximal effect (EC50) came to 46.1 nM.

Molecule `CCCCCCCCCCCCCCCC(=O)N[C@@H](CCC(=O)N[C@@H](CCC(=O)NCCCC[C@H](NC(=O)[C@H](CC(=O)O)NC(=O)[C@H](CO)NC(=O)[C@@H](NC(=O)[C@H](Cc1ccccc1)NC(=O)[C@@H](NC(=O)CNC(=O)[C@H](CCC(N)=O)NC(=O)C(C)(C)NC(=O)[C@@H](N)Cc1c[nH]cn1)[C@@H](C)O)[C@@H](C)CC)C(=O)N[C@@H](CO)C(=O)N[C@@H](CCCCN)C(=O)N[C@@H](Cc1ccc(O)cc1)C(=O)N[C@@H](CC(C)C)C(=O)N[C@@H](CC(=O)O)C(=O)N[C@@H](CCC(=O)O)C(=O)N[C@@H](CCC(N)=O)C(=O)N[C@@H](C)C(=O)N[C@@H](C)C(=O)N[C@@H](CCCCN)C(=O)N[C@@H](CCC(=O)O)C(=O)N[C@@H](Cc1ccccc1)C(=O)N[C@H](C(=O)N[C@@H](C)C(=O)N[C@@H](Cc1c[nH]c2ccccc12)C(=O)N[C@@H](CC(C)C)C(=O)N[C@@H](CCSC)C(=O)N[C@@H](CC(N)=O)C(=O)N[C@H](C(N)=O)[C@@H](C)O)[C@@H](C)CC)C(=O)O)C(=O)O` [compound 650] yielded an EC50 under setting [1] of 0.007 nM.

With `CCCCCCCCCCCCCCCC(=O)N[C@@H](CCC(=O)N[C@@H](CCC(=O)NCCCC[C@H](NC(=O)[C@H](CC(=O)O)NC(=O)[C@H](CO)NC(=O)[C@@H](NC(=O)[C@H](Cc1ccccc1)NC(=O)[C@@H](NC(=O)CNC(=O)[C@H](CCC(N)=O)NC(=O)[C@@H](CO)NC(=O)[C@@H](N)Cc1c[nH]cn1)[C@@H](C)O)[C@@H](C)O)C(=O)N[C@@H](CO)C(=O)N[C@@H](CCCCN)C(=O)N[C@@H](Cc1ccc(O)cc1)C(=O)N[C@@H](CC(C)C)C(=O)N[C@@H](CC(=O)O)C(=O)N[C@@H](CCC(=O)O)C(=O)N[C@@H](CCC(N)=O)C(=O)N[C@@H](C)C(=O)N[C@@H](C)C(=O)N[C@@H](CCCCN)C(=O)N[C@@H](CCC(=O)O)C(=O)N[C@@H](Cc1ccccc1)C(=O)N[C@H](C(=O)N[C@@H](C)C(=O)N[C@@H](Cc1c[nH]c2ccccc12)C(=O)N[C@@H](CC(C)C)C(=O)N[C@@H](CCSC)C(=O)N[C@@H](CC(N)=O)C(=O)N[C@H](C(N)=O)[C@@H](C)O)[C@@H](C)CC)C(=O)O)C(=O)O` [compound 644], it took 0.008 nM to reach a half-maximal effect under setting [1] (EC50).

In the case of `CCCCCCCCCCCCCCCC(=O)N[C@@H](CCC(=O)NCCCC[C@H](NC(=O)[C@H](CC(=O)O)NC(=O)[C@H](CO)NC(=O)[C@@H](NC(=O)[C@H](Cc1ccccc1)NC(=O)[C@@H](NC(=O)CNC(=O)[C@H](CCC(N)=O)NC(=O)C(C)(C)NC(=O)[C@@H](N)Cc1cnc[nH]1)[C@@H](C)O)[C@@H](C)O)C(=O)N[C@@H](CO)C(=O)N[C@@H](CCCCN)C(=O)N[C@@H](Cc1ccc(O)cc1)C(=O)N[C@@H](CC(C)C)C(=O)N[C@@H](CC(=O)O)C(=O)NC(C)(C)C(=O)N[C@@H](CCCNC(=N)N)C(=O)N[C@@H](C)C(=O)N[C@@H](C)C(=O)N[C@@H](CCC(N)=O)C(=O)N[C@@H](CC(=O)O)C(=O)N[C@@H](Cc1ccccc1)C(=O)N[C@H](C(=O)N[C@@H](CCC(N)=O)C(=O)N[C@@H](Cc1c[nH]c2ccccc12)C(=O)N[C@@H](CC(C)C)C(=O)N[C@@H](CCSC)C(=O)N[C@@H](CC(=O)O)C(=O)N[C@H](C(N)=O)[C@@H](C)O)C(C)C)C(=O)O` [compound 656], a half-maximal response under setting [1] (EC50) required 0.006 nM. This EC50 and that of the molecule before are within 1.5-fold of each other.
